The test system of the assay is fungal pathogen. Kind of assay: Control treatments with processing aids alone on young plants inoculated with fungal pathogen. Type of assay: in vivo. The conditions noted are these: applied alone at final rates similar to those in the pellet fractions; compared with UTC plants. An excerpt:
GEROPON® (SDOS) and C12EO25 were also each applied to young plants at final rates similar to those in the pellet fractions. The young plants were later inoculated with fungal pathogen and the each plant was scored for percent control of the pathogen relative to the UTC plants.

For “polyoxyethylene (25) dodecyl ether [C12EO25]”, the inherent antifungal activity result is recorded as “no inherent antifungal activity”.

For the origin of these results see US10703775B2, “Method of purifying antifungal compounds and exopolysaccharides from a microbial cell culture” (Bayer CropScience LP, priority 2016, dated 2020).
